Entries after “also recorded” stand apart in the source; their conditions may differ.
Tests used:
[1] = tested on: HIV-1 reverse transcriptase A98G (A98G-RTV); test: Phenotypic susceptibility assay, site directed mutant A98G-RTV; format: cell-based; conditions: >1 loss of susceptibility
Experimental: (§1) Resistance tests were carried out with resistance test vectors using two host cell types. Resistance test vector viral particles were produced by a first host cell (the resistance test vector host cell) that was prepared by transfecting a packaging host cell with the resistance test vector and the packaging expression vector. The resistance test vector viral particles were then used to infect a second host cell (the target host cell) in which the expression of the indicator gene is measured.
(§2) The resistance test vectors containing a functional luciferase gene cassette were constructed and host cells were transfected with the resistance test vector DNA. The resistant test vectors contained patient-derived reverse transcriptase and protease sequences that were either susceptible or resistant to the antiretroviral agents, such as nucleoside reverse transcriptase inhibitors, non-nucleoside reverse transcriptase inhibitors and protease inhibitors. The resistance test vector viral particles produced by transfecting the resistance test vector DNA into host cells, either in the presence or absence of protease inhibitors, were used to infect target host cells grown either in the absence of NRTI or NNRTI or in the presence of increasing concentrations of the drug. […] The IC50 values were determined by plotting percent drug inhibition vs. log10 drug concentration.
(§3) Host cells were seeded in 10-cm-diameter dishes and were transfected several days after plating with resistance test vector plasmid DNA and the envelope expression vector. […] HIV capsid protein (p24) levels in the harvested cell culture media were determined by an EIA method as described by the manufacturer (SIAC; Frederick, Md.). […] The inhibitory effect of the drug was determined using the following equation: % luciferase inhibition=1-(RLUluc[drug]÷RLUluc)×100 where RLUluc [drug] is the relative light unit of luciferase activity in infected cells in the presence of drug and RLUluc is the Relative Light Unit of luciferase activity in infected cells in the absence of drug. […]

[2] = tested on: HIV-1 reverse transcriptase P236L plus K103N, Y181C or both; test: Phenotypic susceptibility assay, P236L with K103N, Y181C or K103N+Y181C; format: cell-based; conditions: P236L added to K103N, Y181C or K103N+Y181C versus corresponding RTV lacking P236L
Experimental: Transfections were performed using a calcium-phosphate precipitation procedure. […] Cell lysates were assayed for luciferase activity (FIG. 3). […] The drug inhibition curves are shown in (FIG. 3).
Resistance test vectors were constructed containing the P236L mutation alone and in combination with other known drug resistance mutations (K103N, Y181C) that are known to modulate the susceptibility of HIV-1 to NNRTIs. […] The P236L mutation was also introduced into a RTV containing mutations at K103N, Y181C or both (K103N+Y181C).

[3] = tested on: HIV-1 reverse transcriptase V106A + V189L (V106A-V189L-RTV); test: Phenotypic susceptibility assay, site directed mutant V106A-V189L-RTV; format: cell-based; conditions: >1 loss of susceptibility
Experimental: as §1, §2, §3

[4] = tested on: HIV-1 reverse transcriptase K103N + G190A (K103N-G190A-RTV); test: Phenotypic susceptibility assay, site directed mutant K103N-G190A-RTV; format: cell-based; conditions: K103N-G190-RTV (K103N + G190A); >1 loss of susceptibility
Experimental: as §1, §2, §3

[5] = tested on: RTV-1060 patient virus (RT K101E, G190S); test: Phenotypic susceptibility assay, RTV-1060 (patient 98-1060); format: cell-based, HIV-1; conditions: >1 decreased susceptibility
Experimental: as §1
The resistance test vectors containing a functional luciferase gene cassette were constructed and host cells were transfected with the resistance test vector DNA. The resistant test vectors contained patient-derived reverse transcriptase and protease sequences that were either susceptible or resistant to the antiretroviral agents, such as nucleoside reverse transcriptase inhibitors, non-nucleoside reverse transcriptase inhibitors and protease inhibitors. […] The IC50 values were determined by plotting percent drug inhibition vs. log10 drug concentration.
as §3
An IC50 was determined for the resistance test vector pool for each drug tested.

[6] = tested on: HIV-1 reverse transcriptase V108I (V108I-RTV); test: Phenotypic susceptibility assay, site directed mutant V108I-RTV; format: cell-based; conditions: >1 loss of susceptibility
Experimental: as §1, §2, §3

[7] = tested on: HIV-1 reverse transcriptase V106A + Y181C (V106A-Y181C-RTV); test: Phenotypic susceptibility assay, site directed mutant V106A-Y181C-RTV; format: cell-based; conditions: >1 loss of susceptibility
Experimental: as §1, §2, §3

[8] = tested on: HIV-1 reverse transcriptase V106A + Y181C + F227L (V106A-Y181C-F227L-RTV); test: Phenotypic susceptibility assay, site directed mutant V106A-Y181C-F227L-RTV; format: cell-based; conditions: >1 loss of susceptibility
Experimental: as §1, §2, §3

[9] = tested on: HIV-1 reverse transcriptase G190S (G190S-RTV); test: Phenotypic susceptibility assay, site directed mutant G190S-RTV; format: cell-based; conditions: for change in susceptibility: G190S-RTV versus wild type reference RTV; for fold change in susceptibility compared to wild type control RTV: G190S-RTV, >1 loss, <1 increased susceptibility
Experimental: as §1
(§4) The resistance test vectors containing a functional luciferase gene cassette were constructed and host cells were transfected with the resistance test vector DNA. The resistant test vectors contained patient-derived reverse transcriptase and protease sequences that were either susceptible or resistant to the antiretroviral agents, such as nucleoside reverse transcriptase inhibitors, non-nucleoside reverse transcriptase inhibitors and protease inhibitors. The resistance test vector viral particles produced by transfecting the resistance test vector DNA into host cells, either in the presence or absence of protease inhibitors, were used to infect target host cells grown either in the absence of NRTI or NNRTI or in the presence of increasing concentrations of the drug. The amount of luciferase activity produced in infected target host cells in the presence of drug was compared to the amount of luciferase produced in infected target host cells in the absence of drug. Drug resistance was measured as the amount of drug required to inhibit by 50% the luciferase activity detected in the absence of drug (inhibitory concentration 50%, IC50). The IC50 values were determined by plotting percent drug inhibition vs. log10 drug concentration.
(§5) Host cells were seeded in 10-cm-diameter dishes and were transfected several days after plating with resistance test vector plasmid DNA and the envelope expression vector. Transfections were performed using a calcium-phosphate precipitation procedure. The cell culture media containing the DNA precipitate was replaced with fresh medium, from one to 24 hours, after transfection. Cell culture media containing resistance test vector viral particles was harvested one to four days after transfection and was passed through a […] filter before being stored at −80° C. HIV capsid protein (p24) levels in the harvested cell culture media were determined by an EIA method as described by the manufacturer (SIAC; Frederick, Md.). Before infection, target cells (293 and 293/T) were plated in cell culture media. Control infections were performed using cell culture media from mock transfections (no DNA) or transfections containing the resistance test vector plasmid DNA without the envelope expression plasmid. One to three or more days after infection the media was removed and cell lysis buffer (Promega) was added to each well. […] The inhibitory effect of the drug was determined using the following equation: % luciferase inhibition=1-(RLUluc[drug]÷RLUluc)×100 where RLUluc [drug] is the relative light unit of luciferase activity in infected cells in the presence of drug and RLUluc is the Relative Light Unit of luciferase activity in infected cells in the absence of drug. IC50 values were obtained from the sigmoidal curves that were generated from the data by plotting the percent inhibition of luciferase activity vs. the log10 drug concentration. […]

[10] = tested on: HIV-1 reverse transcriptase L100I (L100I-RTV); test: Phenotypic susceptibility assay, site directed mutant L100I-RTV; format: cell-based; conditions: >1 loss of susceptibility
Experimental: as §1, §2, §3

[11] = tested on: HIV-1 reverse transcriptase G190A (G190A-RTV); test: Phenotypic susceptibility assay, site directed mutant G190A-RTV; format: cell-based; conditions: for change in susceptibility: G190A-RTV versus wild type reference RTV
Experimental: as §1, §4
as §3, with “vector. Transfections were performed using a calcium-phosphate precipitation procedure. The cell culture media containing the DNA precipitate was replaced with fresh medium, from one to 24 hours, after transfection.” for “vector.”

[12] = tested on: HIV-1 reverse transcriptase Y181C + A98G (Y181C-A98G-RTV); test: Phenotypic susceptibility assay, site directed mutant Y181C-A98G-RTV; format: cell-based; conditions: >1 loss of susceptibility
Experimental: as §1, §2, §3

[13] = tested on: HIV-1 reverse transcriptase A98G + G190S (A98G-G190S-RTV); test: Phenotypic susceptibility assay, site directed mutant A98G-G190S-RTV; format: cell-based; conditions: >1 loss, <1 increased susceptibility
Experimental: as §1, §2, §3

[14] = tested on: HIV-1 reverse transcriptase V189L (V189L-RTV); test: Phenotypic susceptibility assay, site directed mutant V189L-RTV; format: cell-based; conditions: >1 loss of susceptibility
Experimental: as §1, §2, §3

[15] = tested on: HIV-1 reverse transcriptase Y181C + F227L (Y181C-F227L-RTV); test: Phenotypic susceptibility assay, site directed mutant Y181C-F227L-RTV; format: cell-based; conditions: >1 loss, <1 increased susceptibility
Experimental: as §1, §2, §3

[16] = tested on: HIV-1 reverse transcriptase F227L (F227L-RTV); test: Phenotypic susceptibility assay, site directed mutant F227L-RTV; format: cell-based; conditions: >1 loss, <1 increased susceptibility
Experimental: as §1, §2, §3

[17] = tested on: HIV-1 reverse transcriptase K101E (K101E-RTV); test: Phenotypic susceptibility assay, site directed mutant K101E-RTV; format: cell-based
Experimental: as §1, §4, §5

[18] = K101E-RTV, >1 loss of susceptibility
[19] = second pair of values printed in the K101E-RTV sentence of b280

Structure (SMILES) | fold change in susceptibility compared to wild type control RTV [1] [fold] | change in susceptibility [2] | fold change in susceptibility compared to wild type control RTV [3] [fold] | fold change in susceptibility compared to wild type control RTV [4] | fold change in susceptibility [5] | fold change in susceptibility compared to wild type control RTV [6] [fold] | fold change in susceptibility compared to wild type control RTV [7] | fold change in susceptibility compared to wild type control RTV [8] | change in susceptibility [9] | fold change in susceptibility compared to wild type control RTV [9] [fold] | fold change in susceptibility compared to wild type control RTV [10] [fold] | change in susceptibility [11] | fold change in susceptibility compared to wild type control RTV [12] | fold change in susceptibility compared to wild type control RTV [13] | fold change in susceptibility compared to wild type control RTV [14] [fold] | fold change in susceptibility compared to wild type control RTV [15] [fold] | fold change in susceptibility compared to wild type control RTV [16] [fold] | fold change in susceptibility compared to wild type control RTV [17, 18] [fold] | fold change in susceptibility compared to wild type control RTV [17, 19] [fold] | other results
Cc1ccnc2c1NC(=O)c1cccnc1N2C1CC1 [nevirapine] | 8 | did not significantly alter; also recorded: little or no additional reduction; also recorded: no effect | 50 | greater than 800 fold | greater than 800 fold | 3 | greater than 800 fold | greater than 800 fold | markedly less susceptible; also recorded: decrease; also recorded: greatly reduce susceptibility | 75 | 3 | markedly less susceptible; also recorded: decrease; also recorded: greatly reduce susceptibility | greater than 800 fold | greater than 800 fold | 1.3 | 285 | 3 | 12 | 55 | 
CC(C)Nc1cccnc1N1CCN(C(=O)c2cc3cc(NS(C)(=O)=O)ccc3[nH]2)CC1 [delavirdine] | 3 | less susceptible (more resistant); also recorded: additional reduction; also recorded: severe resistance | 3 | 40 fold | 1.5 fold | 1.3 | 100 fold | 50 fold | slightly more susceptible; also recorded: increase; also recorded: slightly increase susceptibility | 0.5 | 30 | slightly more susceptible; also recorded: increase; also recorded: slightly increase susceptibility | 240 fold | 0.8 fold | 1.8 | 0.89 | 0.03 | 5 |  | change in susceptibility ([11]; listed as delviridine): increased susceptibility
O=C1Nc2ccc(Cl)cc2[C@@](C#CC2CC2)(C(F)(F)F)O1 [efavirenz] | 3 | restores a significant portion of the loss of susceptibility | 1 | 215 fold | 900 fold | 1.7 | 4 fold | 12 fold |  | 8 | 10 |  | 7 fold | greater than 250 fold | 1.3 | 0.99 | 0.48 | 5 | 30 | fold change in susceptibility compared to wild type control RTV ([11]; G190A-RTV): 8 fold

Reference: patent US20050130134A1, “Means and methods for monitoring non-nucleoside reverse transcriptase inhibitor antiretroviral therapy and guiding therapeutic decisions in the treatment HIV-AIDS” (ViroLogic, Inc., priority 2000, published 2005)
